# Like-named read-outs stand apart in the source and are kept apart here.
# How the values were obtained:
# [1] = test system: HeLa cells; assay: Drug combination assay with doxorubicin (MTT, CompuSyn); type: cell-based, human; set-up: key to CI (combination index): CI <1 synergy, ~1 additivity, >1 antagonism; conditions: for Interaction: interaction type with doxorubicin; for CI (combination index): with doxorubicin, 72 h, average over drug ratios at IC50
# Procedure: The HeLa cell line was used to perform this assay. Doxorubicin (2 mg/mL, Teva Pharmaceuticals, Budapest, Hungary) was serially diluted in the horizontal direction, starting with 8.6 µM. The resistance modifier was subsequently diluted in the vertical direction, and the starting concentration was determined based on the IC50. The dilutions of doxorubicin were made in a horizontal direction in 100 µL, and the dilutions of the resistance modifiers occurred vertically in the microtiter plate in a 50 µL volume. The compounds and doxorubicin were diluted separately. […] Then, diluted compounds with a volume of 50 μL were added to each well to reach a final volume of 200 μL. The plates were incubated for 72 h at 37 °C in a CO2 incubator, and at the end of the incubation period, the cell growth was determined by the MTT staining method, as described earlier. Drug interactions were evaluated using CompuSyn software. Each dose-response curve (for individual agents as well as combinations) was fit to a linear model using the median effect equation in order to obtain the median effect value (corresponding to the IC50) and slope (m). The goodness-of-fit was assessed using the linear correlation coefficient, r, and only data from analysis with r > 0.90 are presented. The extent of the interaction between drugs was expressed using the combination index in which a CI value close to 1 indicates additivity, while CI < 1 is defined as synergy and CI > 1 as antagonism.
# [2] = test system: HeLa, COLO 205, and COLO 320 cancer cells; assay: Antiproliferative MTT assay, summary over the tested cell lines; type: cell-based; conditions: Homo sapiens, 72 h, COLO 205, COLO 320, read-out: IC50 values, range over the cancer cell lines
# Procedure: (§1) The human colon adenocarcinoma cells (COLO 205 sensitive and the resistant COLO 320/MDR-LRP expressing P-gp), namely, ATCC-CCL-220.1 (COLO 320) and CCL-222 (COLO 205) were cultured in RPMI 1640 medium supplemented with 10% heat-inactivated fetal bovine serum, 2 mM L-glutamine, 1 mM Na pyruvate, and 100 mM HEPES. HeLa (ATCC® CCL-2™) human cervix carcinoma cells, and MRC-5 (ATCC® CCL-171) human embryonal lung fibroblast cells were cultured in Eagle’s minimal essential medium (EMEM, containing 4.5 g/L glucose) supplemented with a non-essential amino acid mixture, a selection of vitamins, and 10% heat-inactivated fetal bovine serum. The cell lines were detached with 0.25% trypsin and 0.02% EDTA for 5 min at 37 °C.
# In the study, human colonic adenocarcinoma cell lines (doxorubicin-sensitive COLO 205 and multidrug resistant COLO 320 colonic adenocarcinoma cells), HeLa human cervix carcinoma cells and the MRC-5 non-cancerous human embryonic lung fibroblast cell line were used to determine the effect of the compounds on cell growth. The effects of increasing concentrations of compounds on cell growth were tested in 96-well flat-bottomed microtiter plates. […] The compounds were diluted in a volume of 100 μL of the medium. […] Cell growth was determined by measuring the optical density (OD) at 540/630 nm, with a Multiscan EX ELISA reader (Thermo Labsystems, Cheshire, WA, USA). […]
# [3] = test system: MRC-5 human embryonal lung fibroblast cells; assay: Antiproliferative MTT assay, MRC-5 non-tumor cells; type: cell-based; conditions: four parallel measurements, read-out: IC50 (µM) ± SD MRC-5
# Procedure: as §1
# (§2) In the study, human colonic adenocarcinoma cell lines (doxorubicin-sensitive COLO 205 and multidrug resistant COLO 320 colonic adenocarcinoma cells), HeLa human cervix carcinoma cells and the MRC-5 non-cancerous human embryonic lung fibroblast cell line were used to determine the effect of the compounds on cell growth. The effects of increasing concentrations of compounds on cell growth were tested in 96-well flat-bottomed microtiter plates. […] The compounds were diluted in a volume of 100 μL of the medium. The adherent cells were cultured in 96-well flat-bottomed microtiter plates using EMEM supplemented with 10% heat-inactivated fetal bovine serum. The density of the cells was adjusted to 6 × 10^3 cells in 100 µL per well, the cells were seeded prior to the assay for 24 h at 37 °C, with 5% CO2, and then the medium was removed from the plates, and fresh medium (100 µL per well) was added to the cells. The effects of increasing concentrations of compounds on cell proliferation were tested in 96-well flat-bottomed microtiter plates. The compounds were diluted in the appropriate medium; the dilutions of compounds were performed in separate plates and then added to the cells. The starting concentration of the compounds was 100 µM, and two-fold serial dilution was performed (concentration range: 100–0.19 µM). The culture plates were incubated at 37 °C for 72 h; at the end of the incubation period, 20 µL of MTT (thiazolyl blue tetrazolium bromide, Sigma) solution (from a stock solution of 5 mg/mL) was added to each well. After incubation at 37 °C for 4 h, 100 µL of sodium dodecyl sulfate (SDS) (Sigma) solution (10% in 0.01 M HCI) was added to each well, and the plates were further incubated at 37 °C overnight. Cell growth was determined by measuring the optical density (OD) at 540/630 nm, with a Multiscan EX ELISA reader (Thermo Labsystems, Cheshire, WA, USA). Inhibition of cell growth (expressed as IC50: inhibitory concentration that reduces the growth of the cells exposed to the tested compounds by 50%) was determined from the sigmoid curve where 100 − ((ODsample − ODmedium control)/(ODcell control − ODmedium control)) × 100 was plotted against the logarithm of the compound concentrations. Curves were fitted by Prism5 software (GraphPad Software Inc., San Diego, CA, USA) from four parallel experiments for each cell line. Results are expressed in terms of IC50, defined as the inhibitory dose that reduces the proliferation of the cells exposed to the tested compounds by 50% [20].
# [4] = test system: COLO 320/MDR-LRP multidrug resistant colonic adenocarcinoma cells expressing P-gp; assay: Antiproliferative MTT assay, COLO 320; conditions: for IC50: read-out: IC50 (µM) ± SD COLO 320; for SI MRC-5/COLO 320: selectivity index: IC50 in non-tumour cells / IC50 in cancer cells
# Procedure: as §1, §2
# [5] = test system: COLO 205 doxorubicin-sensitive colonic adenocarcinoma cells; assay: Antiproliferative MTT assay, COLO 205; type: cell-based, human; conditions: for IC50: MTT, 72 h, four parallel measurements, read-out: IC50 (µM) ± SD COLO 205; for SI MRC-5/COLO 205: selectivity index: IC50 in non-tumour cells / IC50 in cancer cells
# Procedure: as §1, §2
# [6] = test system: HeLa human cervix carcinoma cells; assay: Antiproliferative MTT assay, HeLa; type: cell-based; conditions: for IC50: MTT, 72 h, four parallel measurements, read-out: IC50 (µM) ± SD HeLa; for SI MRC-5/HeLa: selectivity index: IC50 in non-tumour cells / IC50 in cancer cells
# Procedure: as §1, §2
# [7] = Stability of the hemiacetal, 1H NMR measured again; type: physicochemical; conditions: 1H NMR measured again one day later; two sets of signals approx. 1:0.6
# Excerpt: Compound 2 (ensifolin B) has the molecular formula C25H24O4 compatible with the fragment ion in the HRESIMS at m/z 369.1497 [M − H2O − H]^− (calcd for 369.1491). […] The structure of the phenanthrene skeleton was assembled through 2D NMR analysis. It was concluded that the phenanthrene core of compound 2 is identical to sylvaticin A, a 9,10-dihydrophenanthrene recently described from Luzula sylvatica. However, NMR characteristics of the H2-11 oxymethylene in 2 are different compared to those of sylvaticin A, including its […] shifted carbon (δC 66.2 vs. 60.2) and magnetically inequivalent protons (δH 5.19 and 5.09, vs. δH 5.01, 2H, s). […] Similar to compound 1, ensifolin B (2) also has an asymmetric carbon atom (C-1′). The specific rotation value [α ]D25 of the compound was +2 (c 0.1, MeOH). When compound 2 was injected onto a chiral HPLC column, it eluted with two well-separated peaks with a peak ratio area of 1:1. […] Intermolecular hemiacetals are intrinsically unstable with respect to their parent alcohols and aldehydes. […] Considering that sylvaticin A and 4-hydroxybenzaldehyde, the minor compounds of the mixture were also isolated from other fractions (compound 16 and 18, respectively), it is unclear whether these phytochemicals originally presented in the harvested plant material or whether they are just by-products of the decomposition of compound 2.
# [8] = test system: superoxide anion generation; set-up: method as in PMID 27940118; conditions: anti-inflammatory activity ref 16; cited from earlier work
# [9] = test system: human neutrophils; set-up: method as in PMID 27940118; conditions: fMLP/CB activation ref 16, read-out: IC50 elastase release; cited from earlier work
# [10] = test system: HeLa cells; set-up: method as in PMID 33064469; conditions: HeLa ref 15; read-out: IC50 antiproliferative activity against HeLa cells; cited from earlier work
# [11] = MTT, 72 h, four parallel measurements
Compound,Interaction [1],CI (combination index) [1],IC50 [2] [µM],"IC50 ([3]; Homo sapiens, MRC5, 72 h) [µM]","IC50 ([4]; Homo sapiens, COLO 320, 72 h) [µM]",SI MRC-5/COLO 320 [4],activity relative to positive control cisplatin ([5]; COLO 205 cells),"IC50 ([5]; Homo sapiens, COLO 205, 72 h) [µM]",IC50 [5] [µM],"IC50 ([6]; Homo sapiens, HeLa) [µM]",SI MRC-5/HeLa [6],SI MRC-5/COLO 205 [5],stability of initially pure compound [7],IC50 ([3]; 72 h) [µM],"IC50 [4, 11] [µM]",IC50 [6] [µM],IC50 [8] [µM],IC50 [9] [µM],IC50 [10] [µM]
"Cc1cc(O)c2c(c1C(O)COc1cc(-c3cc(=O)c4c(O)cc(O)cc4o3)ccc1O)CCc1c-2ccc(O)c1C (stereo not shown) [Compound 1, Ensifolin A]",strong synergism (0.1 < CI < 0.3: strong synergism),0.272,3.9 to 12.7,19.3 ± 0.54,12.71 ± 0.05,1.52,more than ten-fold,3.9,3.86 ± 0.08,8.25 ± 0.51,2.34,,,,,,,,
"C=Cc1cc(C)cc2c1-c1ccc(O)c(COC(O)c3ccc(O)cc3)c1CC2 (stereo not shown) [Compound 2, Ensifolin B]",synergism (0.3 < CI < 0.7: synergism),0.584,,51.87 ± 0.14,37.24 ± 0.11,1.39,,45.6 ± 0.5,,33.49 ± 0.29,1.55,1.14,showed signs of decomposition,,,,,,
"C=Cc1cc(C)cc2c1-c1ccc(O)c(C)c1C(O)C2 (stereo not shown) [Compound 3, 2,10-dihydroxy-1,7-dimethyl-5-vinyl-9,10-dihydrophenanthrene]",synergism (0.3 < CI < 0.7: synergism),0.580,,> 100,> 100,,,> 100,,> 100,,,,,,,,,
"C=Cc1cc(C)cc2c1-c1ccc(O)c(COC)c1CC2 [Compound 4, Ensifolin D]",synergism (0.3 < CI < 0.7: synergism),0.643,,> 100,61.6 ± 9.95,>1.62,,65.6 ± 0.78,,19.4 ± 0.33,>5.15,>1.52,,,,,,,
"C=Cc1c(C)cc(O)c2c1CCc1c-2ccc(O)c1C [Compound 5, 2,5-dihydroxy-1,7-dimethyl-8-vinyl-9,10-dihydrophenanthrene]",very strong synergism (CI < 0.1: very strong synergism),,25.2 to 31.2,44.3 ± 0.61,25.2 ± 0.92,1.76,,31.2 ± 0.66,,27.5 ± 1.19,1.61,1.42,,,,,,,
"C=Cc1c(CO)cc(O)c2c1CCc1c-2ccc(O)c1C [Compound 6, Ensifolin F]",strong synergism (0.1 < CI < 0.3: strong synergism),0.159,,> 100,93.71 ± 0.14,>1.07,,> 100,,74.3 ± 2.98,>1.35,,,,,,,,
"CC(=O)c1c(C)cc(O)c2c1CCc1c-2ccc(O)c1C [Compound 7, Ensifolin G]",synergism (0.3 < CI < 0.7: synergism),0.568,,> 100,> 100,,,> 100,,75.6 ± 0.94,>1.32,,,,,,,,
"C=Cc1c(C)cc(O)c2c1CCc1c-2cc(-c2cc3c(c(C)c2O)CCc2c(C=C)c(C)cc(O)c2-3)c(O)c1C [Compound 10, Ensifolin J]",synergism (0.3 < CI < 0.7: synergism),0.454,,57.8 ± 1.32,42.8 ± 1.28,1.35,,44.5 ± 1.22,,33.5 ± 1.89,1.72,1.30,,,,,,,
"C=Cc1c(C)cc(O)c2c1CCc1c-2cc(-c2c(O)c(C)c(C=C)c3ccc4c(C)c(O)ccc4c23)c(O)c1C [Compound 11, Ensifolin K]",strong synergism (0.1 < CI < 0.3: strong synergism),0.112,,33.16 ± 0.05,37.8 ± 1.05,0.88,,31.4 ± 0.72,,29.5 ± 0.31,1.12,1.06,,,,,,,
"C=Cc1c(C)cc(O)c2c1CCc1c-2cc(-c2c(C)c(C=C)c3c(c2O)-c2ccc(O)c(C)c2CC3)c(O)c1C [Compound 12, Ensifolin L]",strong synergism (0.1 < CI < 0.3: strong synergism),0.120,,50.4 ± 1.3,37.4 ± 2.13,1.35,,26.9 ± 1.19,,30.22 ± 0.21,1.67,1.87,,,,,,,
"C=Cc1cc(C)cc2c1-c1ccc(O)c(C)c1CC2 [Compound 14, 2-hydroxy-1,7-dimethyl-5-vinyl-9,10-dihydrophenanthrene]",synergism (0.3 < CI < 0.7: synergism),0.579,,60.89 ± 0.25,52.4 ± 0.77,1.16,,32.9 ± 0.59,,58.1 ± 1.2,1.05,1.85,,,,,,,
"C#Cc1c(C)c(O)cc2c1CCc1c-2ccc(O)c1C [Compound 16, juncatrin B]",synergism (0.3 < CI < 0.7: synergism),0.682,,,,0.80,,,34.4 ± 0.57,,3.91,0.76,,26 ± 0.85,32.5 ± 0.75,6.65 ± 0.1,,,
"O=Cc1ccc(O)cc1 [Compound 18, 4-hydroxybenzaldehyde]",,,,> 100,> 100,,,> 100,,> 100,,,,,,,,,
"O=c1cc(-c2ccc(O)c(O)c2)oc2cc(O)cc(O)c12 [Compound 19, luteolin]",,,,> 100,> 100,,,> 100,,> 100,,,,,,,,,
"N.N.[Cl][Pt][Cl] [cisplatin, reference compound]",,,,,,,,,41.7 ± 1.62,,,,,2.36 ± 0.33,,3.62 ± 0.16,,,
COc1cccc2c1C(=O)c1c(O)c3c(c(O)c1C2=O)C[C@@](O)(C(=O)CO)C[C@@H]3O[C@H]1C[C@H](N)[C@H](O)[C@H](C)O1 [doxorubicin],,,,0.53 ± 0.06,0.22 ± 0.004,,,1.36 ± 0.36,,0.04 ± 0.004,,,,,,,,,
"C=Cc1c(C)c(O)cc2c1-c1ccc(O)c(C)c1CC2 [juncusol, reference compound]",,,,,,,,,,,,,,,,,3.1,,
juncuenin B [Compound 15],slight synergism (0.7 < CI < 0.9: moderate to slight synergism),0.864,,,,1.17,,,37.1 ± 0.57,,5.37,0.97,,35.9 ± 1.23,30.5 ± 0.93,6.67 ± 0.03,4.9,5.5,2.9
sylvaticin A [Compound 17],strong synergism (0.1 < CI < 0.3: strong synergism),0.279,,,,>1.73,,,56.7 ± 0.75,,>9.47,>1.76,,> 100,57.7 ± 0.92,10.56 ± 0.09,,,
